Source: the kinase profiling compilation of Christmann-Franck et al. (2016)

Columns and labels:
Test in all cases: radiometric filter-binding kinase assay
AURKA (human) = AURKA (human) (UniProt O14965)
BRSK1 (human) = BRSK1 (human) (UniProt Q8TDC3)
BRSK2 (human) = BRSK2 (human) (UniProt Q8IWQ3)
CDK2 CCNA2 (human) = CDK2 CCNA2 (human) (UniProt P20248+P24941)
CLK2 (human) = CLK2 (human) (UniProt P49760)
CSK (human) = CSK (human) (UniProt P41240)
CSNK1D (human) = CSNK1D (human) (UniProt P48730)
EPHA4 (human) = EPHA4 (human) (UniProt P54764)
EPHB2 (human) = EPHB2 (human) (UniProt P29323)
FGFR1 (human) = FGFR1 (human) (UniProt P11362)
FLT1 (human) = FLT1 (human) (UniProt P17948)
INSRR (human) = INSRR (human) (UniProt P14616)
IRAK4 (human) = IRAK4 (human) (UniProt Q9NWZ3)
JAK2 JH1 JH2 (human) = JAK2 JH1 JH2 (human) (UniProt O60674)
MAP2K2 (human) = MAP2K2 (human) (UniProt P36507)
MAP3K11 (human) = MAP3K11 (human) (UniProt Q16584)
MAP3K7 TAB1 (human) = MAP3K7 TAB1 (human) (UniProt Q15750+O43318)
MAPK12 (human) = MAPK12 (human) (UniProt P53778)
MAPK8 (human) = MAPK8 (human) (UniProt P45983)
MAPKAPK3 (human) = MAPKAPK3 (human) (UniProt Q16644)
MARK4 (human) = MARK4 (human) (UniProt Q96L34)
MELK (human) = MELK (human) (UniProt Q14680)
MYLK (human) = MYLK (human) (UniProt Q15746)
[1] = system: PAK2 (human), Q13177 [T402E]
PIM1 (human) = PIM1 (human) (UniProt P11309)
PIM3 (human) = PIM3 (human) (UniProt Q86V86)
PLK1 (human) = PLK1 (human) (UniProt P53350)
RIPK2 (human) = RIPK2 (human) (UniProt O43353)
RPS6KA3 KD1 KD2 (human) = RPS6KA3 KD1 KD2 (human) (UniProt P51812)
[2] = system: RPS6KB1 (human), P23443 [T412E]
[3] = system: SGK1 (human), O00141 [S422D]
SYK (human) = SYK (human) (UniProt P43405)
TBK1 (human) = TBK1 (human) (UniProt Q9UHD2)
TTK (human) = TTK (human) (UniProt P33981)
INSR (human) = INSR (human) (UniProt P06213); conditions: compound 0.1 µM

Sequence of MARK4 (human) (Q96L34 whole entry, looked up): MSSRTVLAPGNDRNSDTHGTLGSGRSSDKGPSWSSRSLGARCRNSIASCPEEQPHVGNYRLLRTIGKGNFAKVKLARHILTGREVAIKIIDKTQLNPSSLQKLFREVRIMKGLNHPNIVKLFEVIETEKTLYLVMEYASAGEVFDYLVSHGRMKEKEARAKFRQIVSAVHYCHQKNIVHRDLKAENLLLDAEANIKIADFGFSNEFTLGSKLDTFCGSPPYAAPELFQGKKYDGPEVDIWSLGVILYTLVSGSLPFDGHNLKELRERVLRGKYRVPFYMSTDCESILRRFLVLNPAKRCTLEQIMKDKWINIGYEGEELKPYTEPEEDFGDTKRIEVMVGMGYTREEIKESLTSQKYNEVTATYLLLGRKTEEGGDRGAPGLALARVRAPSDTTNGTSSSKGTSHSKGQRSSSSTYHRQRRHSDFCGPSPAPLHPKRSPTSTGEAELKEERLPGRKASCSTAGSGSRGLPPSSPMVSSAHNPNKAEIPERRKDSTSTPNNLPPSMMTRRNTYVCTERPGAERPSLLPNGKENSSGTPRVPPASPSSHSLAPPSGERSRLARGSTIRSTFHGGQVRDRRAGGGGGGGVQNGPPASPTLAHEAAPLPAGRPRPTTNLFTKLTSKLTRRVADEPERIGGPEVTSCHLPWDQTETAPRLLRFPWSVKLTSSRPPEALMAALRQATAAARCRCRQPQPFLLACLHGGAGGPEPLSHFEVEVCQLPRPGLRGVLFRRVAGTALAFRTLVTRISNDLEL
Sequence of TTK (human) (P33981 whole entry, looked up): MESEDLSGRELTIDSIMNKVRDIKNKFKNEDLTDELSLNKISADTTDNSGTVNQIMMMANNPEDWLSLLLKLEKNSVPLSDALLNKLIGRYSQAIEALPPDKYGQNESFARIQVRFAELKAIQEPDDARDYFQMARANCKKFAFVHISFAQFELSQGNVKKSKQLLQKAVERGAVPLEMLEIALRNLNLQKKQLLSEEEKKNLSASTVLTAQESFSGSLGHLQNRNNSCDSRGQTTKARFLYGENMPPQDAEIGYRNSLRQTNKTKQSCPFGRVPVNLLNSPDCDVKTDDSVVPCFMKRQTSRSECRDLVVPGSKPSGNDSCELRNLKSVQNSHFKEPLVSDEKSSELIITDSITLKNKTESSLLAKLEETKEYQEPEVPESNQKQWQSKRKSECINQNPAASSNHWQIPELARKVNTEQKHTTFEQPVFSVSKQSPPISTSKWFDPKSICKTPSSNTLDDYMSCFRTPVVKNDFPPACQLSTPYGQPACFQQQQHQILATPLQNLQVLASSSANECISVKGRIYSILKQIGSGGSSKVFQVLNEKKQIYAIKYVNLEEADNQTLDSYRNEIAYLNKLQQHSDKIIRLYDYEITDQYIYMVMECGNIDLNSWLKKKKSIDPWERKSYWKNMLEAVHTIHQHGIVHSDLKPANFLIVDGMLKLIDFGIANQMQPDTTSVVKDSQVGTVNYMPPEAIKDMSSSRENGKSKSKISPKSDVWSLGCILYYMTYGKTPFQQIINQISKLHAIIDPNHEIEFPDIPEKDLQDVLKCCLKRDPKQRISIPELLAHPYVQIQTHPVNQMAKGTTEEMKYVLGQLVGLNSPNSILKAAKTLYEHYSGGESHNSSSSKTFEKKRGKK
Sequence of MAPK12 (human) (P53778 whole entry, looked up): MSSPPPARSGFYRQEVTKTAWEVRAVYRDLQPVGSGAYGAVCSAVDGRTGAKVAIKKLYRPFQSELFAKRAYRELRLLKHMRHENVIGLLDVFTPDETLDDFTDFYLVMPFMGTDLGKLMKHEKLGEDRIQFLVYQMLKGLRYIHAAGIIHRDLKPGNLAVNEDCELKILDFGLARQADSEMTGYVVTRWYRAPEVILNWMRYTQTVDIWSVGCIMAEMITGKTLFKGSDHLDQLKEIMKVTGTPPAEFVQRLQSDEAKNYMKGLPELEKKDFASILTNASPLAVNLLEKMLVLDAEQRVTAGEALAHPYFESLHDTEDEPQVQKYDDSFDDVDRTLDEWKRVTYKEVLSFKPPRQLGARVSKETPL
Sequence of EPHA4 (human) (P54764 whole entry, looked up): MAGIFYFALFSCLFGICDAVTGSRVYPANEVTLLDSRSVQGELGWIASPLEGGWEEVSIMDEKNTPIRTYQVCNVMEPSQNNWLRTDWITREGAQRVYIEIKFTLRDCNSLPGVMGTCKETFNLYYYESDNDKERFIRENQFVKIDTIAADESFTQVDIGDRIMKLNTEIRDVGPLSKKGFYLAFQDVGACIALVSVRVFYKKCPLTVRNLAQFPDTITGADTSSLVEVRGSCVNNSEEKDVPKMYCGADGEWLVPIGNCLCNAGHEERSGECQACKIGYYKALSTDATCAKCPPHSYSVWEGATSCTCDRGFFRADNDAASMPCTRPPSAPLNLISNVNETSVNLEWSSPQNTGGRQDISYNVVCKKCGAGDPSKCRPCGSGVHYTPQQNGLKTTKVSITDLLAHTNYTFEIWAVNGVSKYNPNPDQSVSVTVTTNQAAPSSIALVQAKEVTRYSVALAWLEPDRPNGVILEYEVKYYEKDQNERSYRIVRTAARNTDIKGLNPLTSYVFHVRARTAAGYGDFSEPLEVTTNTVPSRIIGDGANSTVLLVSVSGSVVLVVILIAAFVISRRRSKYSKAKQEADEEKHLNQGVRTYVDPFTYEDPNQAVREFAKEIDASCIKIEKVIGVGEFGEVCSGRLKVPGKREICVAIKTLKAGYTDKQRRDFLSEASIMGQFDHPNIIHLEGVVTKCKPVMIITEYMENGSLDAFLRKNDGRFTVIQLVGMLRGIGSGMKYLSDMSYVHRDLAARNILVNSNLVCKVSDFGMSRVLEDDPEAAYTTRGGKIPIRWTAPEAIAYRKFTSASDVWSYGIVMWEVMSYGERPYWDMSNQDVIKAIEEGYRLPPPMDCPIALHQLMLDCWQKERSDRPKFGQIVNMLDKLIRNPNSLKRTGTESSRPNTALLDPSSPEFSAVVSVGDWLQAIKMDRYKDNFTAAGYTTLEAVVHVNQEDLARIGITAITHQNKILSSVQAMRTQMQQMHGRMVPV
Sequence of PIM1 (human) (P11309 whole entry, looked up): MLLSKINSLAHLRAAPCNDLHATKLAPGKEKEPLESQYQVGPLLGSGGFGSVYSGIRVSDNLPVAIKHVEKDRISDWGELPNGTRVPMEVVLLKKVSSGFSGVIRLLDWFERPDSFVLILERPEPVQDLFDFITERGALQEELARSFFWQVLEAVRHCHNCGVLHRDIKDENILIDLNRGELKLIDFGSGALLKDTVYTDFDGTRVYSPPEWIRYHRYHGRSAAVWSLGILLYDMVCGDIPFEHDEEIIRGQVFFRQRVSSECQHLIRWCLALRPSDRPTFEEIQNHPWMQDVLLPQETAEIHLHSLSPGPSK
Sequence of FLT1 (human) (P17948 whole entry, looked up): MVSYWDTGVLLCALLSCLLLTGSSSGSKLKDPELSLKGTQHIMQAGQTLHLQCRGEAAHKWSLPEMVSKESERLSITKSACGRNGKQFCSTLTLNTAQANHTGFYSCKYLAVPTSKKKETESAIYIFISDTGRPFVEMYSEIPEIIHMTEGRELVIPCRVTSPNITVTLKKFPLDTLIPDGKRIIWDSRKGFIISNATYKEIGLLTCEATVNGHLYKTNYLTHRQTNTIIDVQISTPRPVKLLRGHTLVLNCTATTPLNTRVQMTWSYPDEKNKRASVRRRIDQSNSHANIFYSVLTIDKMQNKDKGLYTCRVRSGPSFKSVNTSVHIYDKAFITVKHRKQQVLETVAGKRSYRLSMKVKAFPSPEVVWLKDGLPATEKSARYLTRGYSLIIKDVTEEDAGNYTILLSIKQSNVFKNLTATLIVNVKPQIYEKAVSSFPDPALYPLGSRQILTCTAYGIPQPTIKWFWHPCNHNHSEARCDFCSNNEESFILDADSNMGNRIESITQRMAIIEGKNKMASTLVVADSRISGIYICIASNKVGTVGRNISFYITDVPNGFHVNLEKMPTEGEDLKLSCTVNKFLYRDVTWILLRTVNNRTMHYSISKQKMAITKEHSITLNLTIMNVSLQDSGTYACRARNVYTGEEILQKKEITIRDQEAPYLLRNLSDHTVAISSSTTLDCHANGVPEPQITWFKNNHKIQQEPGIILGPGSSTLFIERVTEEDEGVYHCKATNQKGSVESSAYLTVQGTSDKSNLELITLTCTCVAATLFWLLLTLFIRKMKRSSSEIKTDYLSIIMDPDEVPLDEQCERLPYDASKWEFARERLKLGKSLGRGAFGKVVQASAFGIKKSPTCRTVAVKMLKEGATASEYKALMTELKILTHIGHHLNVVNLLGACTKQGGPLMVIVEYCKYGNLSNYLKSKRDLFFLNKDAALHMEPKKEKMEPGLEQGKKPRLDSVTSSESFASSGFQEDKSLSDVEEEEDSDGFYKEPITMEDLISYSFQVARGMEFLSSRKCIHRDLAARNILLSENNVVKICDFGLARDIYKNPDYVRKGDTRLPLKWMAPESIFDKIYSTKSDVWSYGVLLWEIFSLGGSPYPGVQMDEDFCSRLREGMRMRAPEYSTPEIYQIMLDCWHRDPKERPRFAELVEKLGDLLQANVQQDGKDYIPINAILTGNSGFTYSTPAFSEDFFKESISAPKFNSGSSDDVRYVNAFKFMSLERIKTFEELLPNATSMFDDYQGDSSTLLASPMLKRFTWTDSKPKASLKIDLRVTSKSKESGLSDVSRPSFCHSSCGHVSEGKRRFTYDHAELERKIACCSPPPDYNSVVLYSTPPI
Sequence of MAP2K2 (human) (P36507 whole entry, looked up): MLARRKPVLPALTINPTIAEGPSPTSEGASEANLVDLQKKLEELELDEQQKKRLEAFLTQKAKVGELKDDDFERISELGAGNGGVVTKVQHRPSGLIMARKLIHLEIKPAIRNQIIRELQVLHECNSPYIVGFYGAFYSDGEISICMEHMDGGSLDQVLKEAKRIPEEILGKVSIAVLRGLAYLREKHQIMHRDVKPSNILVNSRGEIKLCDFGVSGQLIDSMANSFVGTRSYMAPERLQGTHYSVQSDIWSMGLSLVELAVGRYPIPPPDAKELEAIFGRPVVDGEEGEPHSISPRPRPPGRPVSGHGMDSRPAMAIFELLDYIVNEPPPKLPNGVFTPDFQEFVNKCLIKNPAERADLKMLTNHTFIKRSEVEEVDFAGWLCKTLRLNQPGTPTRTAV

## O=C(NOC[C@H](O)CO)c1ccc(F)c(F)c1Nc1ccc(I)cc1Cl
AURKA (human); compound 1.0 µM
  residual activity: 112%
AURKA (human); compound 10.0 µM
  residual activity: 108%
BRSK1 (human); compound 1.0 µM
  residual activity: 97%
BRSK1 (human); compound 10.0 µM
  residual activity: 112%
BRSK2 (human); compound 1.0 µM
  residual activity: 94%
BRSK2 (human); compound 10.0 µM
  residual activity: 96%
CDK2 CCNA2 (human); compound 1.0 µM
  residual activity: 110%
CDK2 CCNA2 (human); compound 10.0 µM
  residual activity: 109%
CLK2 (human); compound 1.0 µM
  residual activity: 103%
CLK2 (human); compound 10.0 µM
  residual activity: 85%
CSK (human); compound 1.0 µM
  residual activity: 93%
CSK (human); compound 10.0 µM
  residual activity: 98%
CSNK1D (human); compound 1.0 µM
  residual activity: 89%
CSNK1D (human); compound 10.0 µM
  residual activity: 101%
EPHA4 (human); compound 1.0 µM
  residual activity: 86%
EPHA4 (human); compound 10.0 µM
  residual activity: 89%
EPHB2 (human); compound 1.0 µM
  residual activity: 64%
EPHB2 (human); compound 10.0 µM
  residual activity: 74%
FGFR1 (human); compound 1.0 µM
  residual activity: 140%
FGFR1 (human); compound 10.0 µM
  residual activity: 83%
FLT1 (human); compound 10.0 µM
  residual activity: 39%
INSRR (human); compound 1.0 µM
  residual activity: 106%
IRAK4 (human); compound 1.0 µM
  residual activity: 81%
IRAK4 (human); compound 10.0 µM
  residual activity: 100%
JAK2 JH1 JH2 (human); compound 1.0 µM
  residual activity: 8%
JAK2 JH1 JH2 (human); compound 10.0 µM
  residual activity: 9%
MAP2K2 (human); compound 1.0 µM
  residual activity: 54%
MAP2K2 (human); compound 10.0 µM
  residual activity: 16%
MAP3K11 (human); compound 1.0 µM
  residual activity: 83%
MAP3K11 (human); compound 10.0 µM
  residual activity: 92%
MAP3K7 TAB1 (human); compound 1.0 µM
  residual activity: 77%
MAP3K7 TAB1 (human); compound 10.0 µM
  residual activity: 82%
MAPK12 (human); compound 1.0 µM
  residual activity: 91%
MAPK12 (human); compound 10.0 µM
  residual activity: 98%
MAPK8 (human); compound 1.0 µM
  residual activity: 91%
MAPK8 (human); compound 10.0 µM
  residual activity: 117%
MAPKAPK3 (human); compound 1.0 µM
  residual activity: 90%
MAPKAPK3 (human); compound 10.0 µM
  residual activity: 89%
MARK4 (human); compound 1.0 µM
  residual activity: 112%
MARK4 (human); compound 10.0 µM
  residual activity: 127%
MELK (human); compound 1.0 µM
  residual activity: 81%
MELK (human); compound 10.0 µM
  residual activity: 97%
MYLK (human); compound 10.0 µM
  residual activity: 98%
[1]; compound 10.0 µM
  residual activity: 91%
PIM1 (human); compound 1.0 µM
  residual activity: 92%
PIM1 (human); compound 10.0 µM
  residual activity: 73%
PIM3 (human); compound 1.0 µM
  residual activity: 78%
PIM3 (human); compound 10.0 µM
  residual activity: 72%
PLK1 (human); compound 1.0 µM
  residual activity: 81%
PLK1 (human); compound 10.0 µM
  residual activity: 92%
RIPK2 (human); compound 1.0 µM
  residual activity: 99%
RIPK2 (human); compound 10.0 µM
  residual activity: 100%
RPS6KA3 KD1 KD2 (human); compound 1.0 µM
  residual activity: 104%
RPS6KA3 KD1 KD2 (human); compound 10.0 µM
  residual activity: 92%
[2]; compound 1.0 µM
  residual activity: 97%
[2]; compound 10.0 µM
  residual activity: 81%
[3]; compound 1.0 µM
  residual activity: 69%
[3]; compound 10.0 µM
  residual activity: 74%
SYK (human); compound 1.0 µM
  residual activity: 111%
TBK1 (human); compound 1.0 µM
  residual activity: 117%
TBK1 (human); compound 10.0 µM
  residual activity: 101%
TTK (human); compound 1.0 µM
  residual activity: 98%
TTK (human); compound 10.0 µM
  residual activity: 121%

## CN1CCN(CCOc2cc(OC3CCOCC3)c3c(Nc4c(Cl)ccc5c4OCO5)ncnc3c2)CC1
AURKA (human); compound 0.1 µM
  residual activity: 112%
BRSK1 (human); compound 0.1 µM
  residual activity: 94%
BRSK2 (human); compound 0.1 µM
  residual activity: 96%
CDK2 CCNA2 (human); compound 0.1 µM
  residual activity: 96%
CLK2 (human); compound 0.1 µM
  residual activity: 111%
CSK (human); compound 0.1 µM
  residual activity: 74%
CSNK1D (human); compound 0.1 µM
  residual activity: 115%
EPHA4 (human); compound 0.1 µM
  residual activity: 49%
EPHB2 (human); compound 0.1 µM
  residual activity: 66%
FGFR1 (human); compound 0.1 µM
  residual activity: 110%
FLT1 (human); compound 0.1 µM
  residual activity: 116%
INSR (human)
  residual activity: 90%
INSRR (human); compound 0.1 µM
  residual activity: 123%
IRAK4 (human); compound 0.1 µM
  residual activity: 100%
JAK2 JH1 JH2 (human); compound 0.1 µM
  residual activity: 102%
MAP2K2 (human); compound 0.1 µM
  residual activity: 107%
MAP3K11 (human); compound 0.1 µM
  residual activity: 85%
MAP3K7 TAB1 (human); compound 0.1 µM
  residual activity: 115%
MAPK12 (human); compound 0.1 µM
  residual activity: 94%
MAPK8 (human); compound 0.1 µM
  residual activity: 97%
MAPKAPK3 (human); compound 0.1 µM
  residual activity: 92%
MARK4 (human); compound 0.1 µM
  residual activity: 95%
MELK (human); compound 0.1 µM
  residual activity: 106%
MYLK (human); compound 0.1 µM
  residual activity: 97%
[1]; compound 0.1 µM
  residual activity: 94%
PIM1 (human); compound 0.1 µM
  residual activity: 116%
PIM3 (human); compound 0.1 µM
  residual activity: 111%
PLK1 (human); compound 0.1 µM
  residual activity: 96%
RIPK2 (human); compound 0.1 µM
  residual activity: 9%
[2]; compound 0.1 µM
  residual activity: 93%
[3]; compound 0.1 µM
  residual activity: 112%
TBK1 (human); compound 0.1 µM
  residual activity: 103%
TTK (human); compound 0.1 µM
  residual activity: 112%

## C=C1C(=O)OC2C1CC/C(C)=C/CCC1(C)OC21 (stereo unspecified)
AURKA (human); compound 5.0 µM
  residual activity: 115%
BRSK1 (human); compound 1.0 µM
  residual activity: 109%
BRSK1 (human); compound 5.0 µM
  residual activity: 108%
BRSK2 (human); compound 1.0 µM
  residual activity: 109%
CDK2 CCNA2 (human); compound 1.0 µM
  residual activity: 93%
CDK2 CCNA2 (human); compound 5.0 µM
  residual activity: 116%
CLK2 (human); compound 1.0 µM
  residual activity: 90%
CLK2 (human); compound 5.0 µM
  residual activity: 93%
CSK (human); compound 5.0 µM
  residual activity: 98%
CSNK1D (human); compound 1.0 µM
  residual activity: 99%
EPHA4 (human); compound 1.0 µM
  residual activity: 110%
EPHA4 (human); compound 5.0 µM
  residual activity: 87%
EPHB2 (human); compound 1.0 µM
  residual activity: 72%
EPHB2 (human); compound 5.0 µM
  residual activity: 78%
FGFR1 (human); compound 1.0 µM
  residual activity: 106%
FGFR1 (human); compound 5.0 µM
  residual activity: 99%
FLT1 (human); compound 1.0 µM
  residual activity: 109%
FLT1 (human); compound 5.0 µM
  residual activity: 98%
INSRR (human); compound 1.0 µM
  residual activity: 107%
INSRR (human); compound 5.0 µM
  residual activity: 95%
IRAK4 (human); compound 1.0 µM
  residual activity: 106%
IRAK4 (human); compound 5.0 µM
  residual activity: 97%
JAK2 JH1 JH2 (human); compound 1.0 µM
  residual activity: 116%
JAK2 JH1 JH2 (human); compound 5.0 µM
  residual activity: 98%
MAP2K2 (human); compound 5.0 µM
  residual activity: 109%
MAP3K11 (human); compound 1.0 µM
  residual activity: 104%
MAP3K11 (human); compound 5.0 µM
  residual activity: 116%
MAP3K7 TAB1 (human); compound 1.0 µM
  residual activity: 109%
MAPK12 (human); compound 1.0 µM
  residual activity: 108%
MAPK12 (human); compound 5.0 µM
  residual activity: 115%
MAPK8 (human); compound 1.0 µM
  residual activity: 104%
MAPK8 (human); compound 5.0 µM
  residual activity: 102%
MAPKAPK3 (human); compound 1.0 µM
  residual activity: 135%
MAPKAPK3 (human); compound 5.0 µM
  residual activity: 58%
MARK4 (human); compound 1.0 µM
  residual activity: 111%
MARK4 (human); compound 5.0 µM
  residual activity: 93%
MELK (human); compound 1.0 µM
  residual activity: 138%
MELK (human); compound 5.0 µM
  residual activity: 100%
MYLK (human); compound 1.0 µM
  residual activity: 123%
MYLK (human); compound 5.0 µM
  residual activity: 113%
[1]; compound 1.0 µM
  residual activity: 102%
[1]; compound 5.0 µM
  residual activity: 103%
PIM1 (human); compound 1.0 µM
  residual activity: 97%
PIM1 (human); compound 5.0 µM
  residual activity: 108%
PIM3 (human); compound 1.0 µM
  residual activity: 119%
PIM3 (human); compound 5.0 µM
  residual activity: 121%
PLK1 (human); compound 1.0 µM
  residual activity: 103%
PLK1 (human); compound 5.0 µM
  residual activity: 103%
RIPK2 (human); compound 1.0 µM
  residual activity: 101%
RIPK2 (human); compound 5.0 µM
  residual activity: 112%
RPS6KA3 KD1 KD2 (human); compound 1.0 µM
  residual activity: 102%
RPS6KA3 KD1 KD2 (human); compound 5.0 µM
  residual activity: 94%
[2]; compound 1.0 µM
  residual activity: 103%
[2]; compound 5.0 µM
  residual activity: 106%
[3]; compound 5.0 µM
  residual activity: 115%
SYK (human); compound 1.0 µM
  residual activity: 102%
SYK (human); compound 5.0 µM
  residual activity: 105%
TBK1 (human); compound 1.0 µM
  residual activity: 104%
TTK (human); compound 1.0 µM
  residual activity: 109%
TTK (human); compound 5.0 µM
  residual activity: 106%
